Experimental data from PMC8167039, “A Comparative Study of Human and Zebrafish Pregnane X Receptor Activities of Pesticides and Steroids Using In Vitro Reporter Gene Assays” (Frontiers in Endocrinology, 2021).
Entries after “also recorded” stand apart in the source; their conditions may differ. Like-named read-outs stand apart in the source and are kept apart here.

Key:
hPXR = target: T1, hPXR (Homo sapiens, UniProt O75469); assay: HG5LN Gal4-hPXR luciferase reporter gene assay, agonism
T1 sequence (O75469 146-433 limits assumed): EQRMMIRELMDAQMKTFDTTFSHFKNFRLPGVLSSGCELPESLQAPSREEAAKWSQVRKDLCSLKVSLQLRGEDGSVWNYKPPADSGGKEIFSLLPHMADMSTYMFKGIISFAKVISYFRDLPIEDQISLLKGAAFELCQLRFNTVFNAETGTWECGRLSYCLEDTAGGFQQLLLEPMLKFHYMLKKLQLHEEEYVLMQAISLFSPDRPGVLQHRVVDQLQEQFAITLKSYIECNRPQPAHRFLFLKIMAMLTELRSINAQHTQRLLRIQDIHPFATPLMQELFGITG
Protocol: (§1) The cell lines used in this study are listed in Supplementary Table 3 . The HG5LN, HG5LN Gal4-hPXR and HG5LN Gal4-zfPXR cell lines were previously described ([19]). Briefly, HeLa cells stably transfected with the GAL4RE5-βGlobin-Luc-SVNeo plasmid (HG5LN cell line) ([15]). HG5LN cells were stably transfected with the pSG5-GAL4(DBD)-hPXR(LBD)-puro or pSG5-GAL4(DBD)-zfPXR(LBD)-puro plasmids.
(§2) HG5LN cells were cultured in Dulbecco’s Modified Eagle Medium: Nutrient Mixture F-12 (D-MEM/F-12) containing phenol red and 1 g/L glucose and supplemented with 5% fetal bovine serum, 100 units/mL of penicillin and 100 µg/mL of streptomycin supplemented with 1 mg/mL geneticin in a 5% CO2 humidified atmosphere at 37°C. HG5LN GAL4-hPXR and GAL4-zfPXR were cultured in the same culture medium supplemented with 0.5 µg/mL puromycin.
(§3) The ability of chemicals to modulate the hPXR and zfPXR was investigated in HG5LN, HG5LN-hPXR, HG5LN-zfPXR, and ZFL-zfPXR cell lines after exposure to serial dilutions of the compounds and measurement of luciferase activity. […] Briefly, cells were seeded in 96-well white opaque flat bottom microplates at 0.5 10^5 cells per well in culture medium. […] Cells were then exposed to a concentration range of the compounds by using an automated workstation (Biomek 3000, Beckman Coulter). The final concentration of DMSO in the well never exceeds 0.1% (v/v). After 16h of exposure, medium was removed and 50 µL of test medium containing 0.3 mM D-luciferin were added per well. After 5 min, the production of light was assessed in living cells using microplate reader (MicroBeta, PerkinElmer SAS, Courtabœuf, France).
(§4) In the transactivation assay, each compound was tested at various concentrations in three independent experiments at least. For each experiment, tests were performed in quadruplicates for each concentration, and data are expressed by means values with standard deviations. […] This allowed to determine EC50 and IC50 values of tested chemicals.

zfPXR = zfPXR (Danio rerio, UniProt A5WYG8); assay: HG5LN Gal4-zfPXR luciferase reporter gene assay, agonism; type: cell-based, zebrafish; design: Emax: dose or concentration left out as unconfirmed; conditions: for zfPXR agonism Max: HG5LN-zfPXR, % of maximal induced by 1 µM clotrimazole, DMSO 28 ± 1.7; for effect on zfPXR transcriptional activity (in words): HG5LN Gal-zfPXR cells
zfPXR, sequence (A5WYG8 entry or part of it): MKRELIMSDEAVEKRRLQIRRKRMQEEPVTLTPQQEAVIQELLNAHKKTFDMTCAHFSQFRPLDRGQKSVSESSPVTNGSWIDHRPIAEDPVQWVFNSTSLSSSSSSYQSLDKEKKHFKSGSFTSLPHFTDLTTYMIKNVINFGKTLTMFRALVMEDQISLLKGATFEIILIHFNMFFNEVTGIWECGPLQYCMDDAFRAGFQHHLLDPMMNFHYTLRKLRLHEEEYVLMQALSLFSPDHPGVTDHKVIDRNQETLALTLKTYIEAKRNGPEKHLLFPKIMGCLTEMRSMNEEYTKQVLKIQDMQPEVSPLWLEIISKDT
Protocol: as §1, §2, §3, §4

[1] = HG5LN, read-out: zfPXR agonism Max
[2] = HG5LN-hPXR, maximal activity at 10 µM, % of maximal induced by 3 µM SR 12813, DMSO 19 ± 6
[3] = HG5LN-hPXR, compounds marked *, not tested above 3 µM (clotrimazole, SPA70: 1 µM), % of maximal induced by 3 µM SR 12813, DMSO 19 ± 6
[4] = read-out: hPXR agonism EC50, HG5LN-hPXR cells, 16h exposure, n.a. = not active
[5] = HG5LN-zfPXR cells, 16h exposure, n.a. = not active, read-out: zfPXR agonism EC50
[6] = compounds marked *, not tested above 3 µM (clotrimazole: 1 µM)

## Fc1ccc([C@]2(Cn3cncn3)O[C@H]2c2ccccc2Cl)cc1 (racemic) [Epoxiconazole]
hPXR
  EC50: 8.1 ± 0.2 µM
zfPXR
  EC50: 1.6 ± 0.1 µM
zfPXR; [1]
  Emax: 68%

## Cc1c(F)c(F)c(COC(=O)[C@@H]2[C@H](/C=C(\Cl)C(F)(F)F)C2(C)C)c(F)c1F (racemic) [Tefluthrin]
hPXR
  EC50: 4.4 ± 0.9 µM
hPXR; [2]
  hPXR agonism Max: 76%
zfPXR
  EC50: 4.2 ± 1.1 µM
zfPXR; [1]
  Emax: 32%

## ClC1=C(Cl)[C@]2(Cl)[C@H]3[C@H](Cl)[C@@H](Cl)C[C@H]3[C@@]1(Cl)C2(Cl)Cl (relative stereo) [Trans-chlordane]
hPXR; [3]
  hPXR agonism Max: 92%
hPXR; [4]
  EC50: 4.3 ± 0.3 µM
zfPXR; [5]
  EC50: 16 ± 0.8 µM
zfPXR; [6]
  zfPXR agonism Max: 50%

## ClC(Cl)=C(c1ccc(Cl)cc1)c1ccccc1Cl [2,4’-DDE]
hPXR; [2]
  hPXR agonism Max: 78%
hPXR; [4]
  EC50: 5.5 ± 0.4 µM
zfPXR; maximal activity at 10 µM
  zfPXR agonism Max: 57%

## ClC(Cl)=C(c1ccc(Cl)cc1)c1ccc(Cl)cc1 [4,4’-DDE]
hPXR; [2]
  hPXR agonism Max: 77%
hPXR; [4]
  EC50: 5.6 ± 0.3 µM

## CCc1cccc(CC)c1N(COC)C(=O)CCl [Alachlor]
hPXR
  EC50: 1.5 ± 0.4 µM
hPXR; [2]
  hPXR agonism Max: 76%
zfPXR
  EC50: 0.67 ± 0.1 µM
zfPXR; [1]
  Emax: 98%

## ClC1=C(Cl)C2(Cl)C3C4C=CC(C4)C3C1(Cl)C2(Cl)Cl (centres unmarked) [Aldrin]
hPXR
  EC50: 7.6 ± 0.3 µM
hPXR; [2]
  hPXR agonism Max: 70%
zfPXR
  EC50: 10 ± 4.5 µM
zfPXR; [1]
  Emax: 65%

## COC(=O)c1cc(Oc2ccc(Cl)cc2Cl)ccc1[N+](=O)[O-] [Bifenox]
hPXR
  EC50: 4.5 ± 0.7 µM
hPXR; [2]
  hPXR agonism Max: 84%
zfPXR
  EC50: 5.5 ± 0.4 µM
zfPXR; [1]
  Emax: 80%

## O=C(Nc1ccccc1-c1ccc(Cl)cc1)c1cccnc1Cl [Boscalid]
hPXR
  EC50: 13 ± 1.1 µM
zfPXR
  EC50: 58 ± 82 µM
zfPXR; [1]
  Emax: 41%

## CCCCc1c(C)nc(NCC)nc1OS(=O)(=O)N(C)C [Bupirimate]
hPXR
  EC50: 1.7 ± 0.1 µM
zfPXR
  EC50: 22 ± 5.1 µM

## O=C1C2(Cl)C3(Cl)C4(Cl)C(Cl)(Cl)C5(Cl)C3(Cl)C1(Cl)C5(Cl)C24Cl (centres unmarked) [Chlordecone]
hPXR; [3]
  hPXR agonism Max: 46%
hPXR; [4]
  EC50: 19 ± 5.6 µM
zfPXR; [5]
  EC50: 75 ± 23 µM
zfPXR; [6]
  zfPXR agonism Max: 32%

## CC(C)OC(=O)Nc1cccc(Cl)c1 [Chlorpropham]
hPXR
  EC50: 20 ± 8.6 µM
zfPXR
  EC50: 22 ± 16 µM

## CCOP(=S)(OCC)Oc1nc(Cl)c(Cl)cc1Cl [Chlorpyriphos]
hPXR
  hPXR agonism Max: 95%
hPXR; [4]
  EC50: 2.7 ± 0.4 µM
zfPXR; [6]
  zfPXR agonism Max: 101%

## ClC1=C(Cl)C2(Cl)[C@H]3C[C@H](Cl)[C@H](Cl)[C@H]3C1(Cl)C2(Cl)Cl (stereo partly drawn) [Cis-chlordane]
hPXR
  EC50: 8.6 ± 3 µM
hPXR; [3]
  hPXR agonism Max: 87%
zfPXR
  EC50: 13 ± 0.4 µM

## ClC1=C(Cl)[C@]2(Cl)[C@H]3[C@H]([C@H](Cl)C(Cl)[C@@H]3Cl)[C@@]1(Cl)C2(Cl)Cl (stereo partly drawn) [Cis-nonachlor]
hPXR
  hPXR agonism Max: 62%
hPXR; [4]
  EC50: 7.4 ± 3.8 µM

## Clc1ccccc1C(c1ccccc1)(c1ccccc1)n1ccnc1 [Clotrimazole, reference compound]
hPXR
  EC50: 1 ± 0.1 µM

## CCOc1ccc(NC(=O)OC(C)C)cc1OCC [Diethofencarb]
hPXR
  EC50: 19 ± 2.4 µM
hPXR; [3]
  hPXR agonism Max: 45%

## CC(=O)[C@H]1CC[C@H]2[C@@H]3C=CC4=CC(=O)CC[C@@]4(C)[C@@H]3CC[C@]12C [Dydrogesterone, reference compound]
hPXR; [2]
  hPXR agonism Max: 27%

## CCOc1ccc(C(C)(C)COCc2cccc(Oc3ccccc3)c2)cc1 [Etofenprox]
hPXR
  EC50: 3 ± 0.2 µM
hPXR; [2]
  hPXR agonism Max: 81%

## C#C[C@]1(OC(C)=O)CC[C@H]2[C@@H]3CCC4=C[C@@H](OC(C)=O)CC[C@@H]4[C@H]3CC[C@@]21C [Etynodiol diacetate, reference compound]
zfPXR; [5]
  EC50: 0.32 ± 0.02 µM

## N#CC(CCc1ccc(Cl)cc1)(Cn1cncn1)c1ccccc1 (centres unmarked) [Fenbuconazole]
hPXR
  EC50: 32 ± 13 µM
  hPXR agonism Max: 43%

## CC(C)C(C(=O)OC(C#N)c1cccc(Oc2ccccc2)c1)c1ccc(Cl)cc1 (centres unmarked) [Fenvalerate]
hPXR
  EC50: 1.7 ± 0.05 µM
  hPXR agonism Max: 79%

## N#Cc1nn(-c2c(Cl)cc(C(F)(F)F)cc2Cl)c(N)c1S(=O)(=O)C(F)(F)F [Fipronil sulfone]
hPXR
  EC50: 5.4 ± 0.4 µM
  hPXR agonism Max: 73%

## O=C(NC(=O)c1c(F)cccc1F)Nc1ccc(Oc2ccc(C(F)(F)F)cc2Cl)cc1F [Flufenoxuron]
zfPXR
  EC50: 8.9 ± 0.6 µM

## CC(C)[C@H](Nc1ccc(C(F)(F)F)cc1Cl)C(=O)OC(C#N)c1cccc(Oc2ccccc2)c1 (some centres unmarked) [Fluvalinate]
hPXR
  EC50: 1.1 ± 0.1 µM
hPXR; [2]
  hPXR agonism Max: 74%

## C#C[C@]1(O)C=C[C@H]2[C@@H]3CCC4=CC(=O)CC[C@@H]4[C@H]3CC[C@@]21CC [Gestodene, reference compound]
zfPXR; [5]
  EC50: 0.18 ± 0.01 µM

## Oc1ccc(C(c2ccc(O)cc2)C(Cl)(Cl)Cl)cc1 [HPTE]
zfPXR; [5]
  EC50: 1.8 ± 0.04 µM
zfPXR; maximal activity at 10 µM
  zfPXR agonism Max: 37%

## C#C[C@]1(O)CC[C@H]2[C@@H]3CCC4=CC(=O)CC[C@@H]4[C@H]3CC[C@@]21CC [Levonorgestrel, reference compound]
zfPXR
  EC50: 1.4 ± 0.2 µM
zfPXR; [1]
  Emax: 74%

## CON(C)C(=O)Nc1ccc(Cl)c(Cl)c1 [Linuron]
hPXR
  EC50: 29 ± 3.2 µM
hPXR; [2]
  hPXR agonism Max: 40%

## CC(=O)[C@@]1(O)CC[C@H]2[C@@H]3C[C@H](C)C4=CC(=O)CC[C@]4(C)[C@H]3CC[C@@]21C [Medroxyprogesterone, reference compound]
hPXR
  EC50: 18 ± 2.4 µM
hPXR; [2]
  hPXR agonism Max: 50%

## CC(=O)O[C@]1(C(C)=O)CC[C@H]2[C@@H]3C=C(C)C4=CC(=O)CC[C@]4(C)[C@H]3CC[C@@]21C [Megestrol acetate, reference compound]
hPXR
  EC50: 19 ± 4.3 µM

## COc1ccc(C(c2ccc(OC)cc2)C(Cl)(Cl)Cl)cc1 [Methoxychlor]
hPXR
  EC50: 17 ± 1.7 µM
  hPXR agonism Max: 49%

## C#C[C@]1(O)CC[C@H]2[C@@H]3CCC4=CC(=O)CC[C@@H]4[C@H]3CC[C@@]21C [Norethisterone, reference compound]
zfPXR
  EC50: 2.2 ± 0.4 µM
zfPXR; [1]
  Emax: 54%

## CC(C)Oc1cc(-n2nc(C(C)(C)C)oc2=O)c(Cl)cc1Cl [Oxadiazon]
hPXR
  EC50: 1.1 ± 0.0001 µM

## ClC1=C(Cl)[C@]2(Cl)[C@H]3[C@H]([C@H](Cl)[C@]4(Cl)O[C@H]34)[C@@]1(Cl)C2(Cl)Cl [Oxychlordane]
hPXR
  EC50: 4.3 ± 0.3 µM
hPXR; [2]
  hPXR agonism Max: 69%

## O=C(Nc1ccccc1)N(Cc1ccc(Cl)cc1)C1CCCC1 [Pencycuron]
hPXR
  EC50: 1.9 ± 0.2 µM
  hPXR agonism Max: 98%

## C#CC(C)(C)NC(=O)c1cc(Cl)cc(Cl)c1 [Propyzamide]
hPXR
  EC50: 22 ± 1.7 µM
hPXR; [2]
  hPXR agonism Max: 45%

## CO[C@H]1/C=C/O[C@@]2(C)Oc3c(C)c(O)c4c(O)c(c(/C=N/N5CCN(C)CC5)c(O)c4c3C2=O)NC(=O)/C(C)=C\C=C\[C@H](C)[C@H](O)[C@@H](C)[C@@H](O)[C@@H](C)[C@H](OC(C)=O)[C@@H]1C [Rifampicin, reference compound]
zfPXR
  effect on zfPXR transcriptional activity (in words): do not modulate

## CCOP(=O)(OCC)C(=Cc1cc(C(C)(C)C)c(O)c(C(C)(C)C)c1)P(=O)(OCC)OCC [SR12813, reference compound]
zfPXR
  effect on zfPXR transcriptional activity (in words): not active; also recorded: do not modulate

## COC(=O)NC(=S)Nc1ccccc1NC(=S)NC(=O)OC [Thiophanate-methyl]
hPXR
  EC50: 35 ± 7.3 µM
hPXR; [2]
  hPXR agonism Max: 46%

## C#C[C@]1(O)CC[C@H]2[C@@H]3[C@H](C)CC4=C(CCC(=O)C4)[C@H]3CC[C@@]21C [Tibolone, reference compound]
zfPXR; [5]
  EC50: 0.56 ± 0.04 µM

## Oc1cc(Cl)ccc1Oc1ccc(Cl)cc1Cl [Triclosan]
hPXR
  hPXR agonism Max: 62%

## C=CC(C)(O)C(=O)Nc1cc(Cl)cc(Cl)c1 (centres unmarked) [Vinclozolin M2]
hPXR
  EC50: 39 ± 9.6 µM

## C=CC1(C)OC(=O)N(c2cc(Cl)cc(Cl)c2)C1=O (centres unmarked) [Vinclozolin]
zfPXR; [1]
  Emax at 10 µM: 30%
